Activity calls are given as the source filed them. No cut-off for these calls is given here.
What was measured:
[1] = AUC (0-t) in Sprague-Dawley rat at 10 mg/kg,po measured upto 24 hrs by LC-MS/MS analysis; type: ADME, organism-based; parameters: dose 10 mg/kg, time < 24 hrs, route po; conditions: in vivo
HeLa [2] = test: Induction of apoptosis in human HeLa cells assessed as early apoptotic cells at 0.06 uM incubated for 24 hrs Annexin V-FITC/PI staining based flow cytometry analysis (Rvb= 1.85 %); type: functional
HeLa [3] = test: Induction of cell cycle arrest in human HeLa cells assessed as accumulation of cells at G2/M phase at 0.06 uM incubated for 24 hrs by propidium iodide staining based flow cytometry (reference value: 17.38 %); type: functional
HeLa [4] = test: Induction of apoptosis in human HeLa cells assessed as viable cells at 0.06 uM incubated for 24 hrs Annexin V-FITC/PI staining based flow cytometry analysis (Rvb= 95.9 %); type: functional; conditions: read-out: Activity
HUVEC [5] = test: Antivascular activity against human HUVEC cells assessed as inhibition of capillary tube formation incubated for 24 hrs by crystal violet staining based matrigel-transwell assay; type: functional, cell-based
[6] = Cmax in Sprague-Dawley rat at 10 mg/kg,po measured upto 24 hrs by LC-MS/MS analysis; type: ADME, organism-based; parameters: time < 24 hrs, dose 10 mg/kg, route po; conditions: in vivo
[7] = Half life in Sprague-Dawley rat at 2 mg/kg,iv measured upto 24 hrs by LC-MS/MS analysis; type: ADME, organism-based; conditions: in vivo
HeLa [8] = test: Induction of apoptosis in human HeLa cells assessed as necrotic cells at 0.12 uM incubated for 24 hrs Annexin V-FITC/PI staining based flow cytometry analysis (Rvb= 0.12 %); type: functional
HeLa [9] = test: Induction of apoptosis in human HeLa cells assessed as early apoptotic cells at 0.12 uM incubated for 24 hrs Annexin V-FITC/PI staining based flow cytometry analysis (Rvb= 1.85 %); type: functional
[10] = MRT (0-t) in Sprague-Dawley rat at 2 mg/kg,iv measured upto 24 hrs by LC-MS/MS analysis; type: ADME, organism-based; conditions: in vivo
HeLa [11] = test: Induction of apoptosis in human HeLa cells assessed as late apoptotic cells at 0.12 uM incubated for 24 hrs Annexin V-FITC/PI staining based flow cytometry analysis (Rvb= 2.13 %); type: functional
MDA-MB-231 = test: Antiproliferative activity against human MDA-MB-231 cells assessed as cell growth inhibition incubated for 48 hrs by MTT assay; type: functional, cell-based; conditions: MDA-MB-231, 48 h
A549 = test: Antitumor activity against human A549 cells xenografted in Balb/c mouse assessed as inhibition of tumor weight at 60 mg/kg,ip administrated for 7 days; type: functional, organism-based; conditions: time 7.0 day
HUVEC [12] = test: Antivascular activity against human HUVEC cells assessed as inhibition of cell migration incubated for 24 hrs by wound healing assay; type: functional, cell-based

AUC(0-t) at 24 h [1]: 122 ng·h/mL
Cmax [6]: 28.4 ng/mL
half-life [7]: 5.3 h
MRT last at 24 h [10]: 1.2 h
IC50 (MDA-MB-231): 1890 nM
Structure (SMILES): COc1cc(Cc2nnc3n2N=C(c2ccc(C)cc2)CS3)cc(OC)c1OC
Activity (HeLa [2]): 17.4%
Activity (HeLa [3]): 69.71%
viability at 0.06 µM (HeLa [4]): 74.7%
Activity (HUVEC [5]): Dose-Dependent Effect
Activity (HeLa [8]): 1.59%
Activity (HeLa [9]): 24%
Activity (HeLa [11]): 9.21%
Activity (A549): Active
Activity (HUVEC [12]): Dose-Dependent Effect

Reference: ChEMBL document CHEMBL5370538, “Discovery of novel 6-p-tolyl-3-(3,4,5-trimethoxybenzyl)-7H-[1,2,4]triazolo[3,4-b][1,3,4]thiadiazine derivative as a potent tubulin inhibitor with promising in vivo antitumor activity” (Eur J Med Chem, 2023)
